Measurements: patent US20050075371A1, “Methods and compositions for the oral administration of prodrugs of proton pump inhibitors” (ALLERGAN, INC., priority 2003, published 2005)

Columns and labels:
[1] = tested on: Caco-2 cells; experiment: Membrane permeability (Papp) across Caco-2 cell monolayer, apical to basolateral; assay type: in vitro ADME; conditions: Caco-2, apical to basolateral, 10 μM, 37° C.
Protocol: Determination of membrane permeability in all examples described herein was accomplished by the following procedure. This procedure is also used to determine whether a given prodrug falls within the scope of those claims given herein which relate to membrane permeability.
Caco-2 cells were seeded on Costar™ 12 mm diameter, 0.4 μm pore size transwell filters, and were cultured at 37° C., 5% CO2 in a humidified tissue culture chamber.
DMEM was equilibrated as a transport buffer in 37° C. water bath an hour before experiment. The cells were then equilibrated in transport buffer for 1 hr at 37° C.
Dosing solution (10 μM) was prepared by adding a 20 μL aliquot of a 10 mM stock solution of the prodrug to 20 mL of transport buffer.
Transport across Caco-2 cell monolayer was measured at 37° C., in the apical to basolateral direction (n=3).
Transport buffer was removed from both apical and basolateral compartment of filters. Dosing solution (0.2 mL) was added to the apical compartment of the cell layers on transwell filters, and 0.8 ml fresh pre-warmed transport buffer was added to basolateral compartment. Timing was started for transport, and at 5, 20, and 60 min after transport started, sample fluid (400 μL) was collected from the basolateral compartment. Fresh transport buffer (400 μL) was added back to the basolateral compartment, and the fluid was thoroughly mixed.
Transport samples, dosing solution, and standards(100 μL) each were mixed with 100 μl of a 500 ng/ml internal standard (Lansoprazole-D) for LC-MS/MS analysis, and part of each sample (100 μL) was vortexed and transferred into glass LC-MS/MS vials for analysis.
The apparent permeability coefficient (Papp, cm/sec), otherwise known herein as the membrane permeability, is determined from the following relationship: Papp=J/(ACo) where J (pmol/min) is the transport rate, meaning the rate of prodrug movement through the cell layer, A (cm^2) is the filter surface area, and Co (μM) is the initial dosing concentration.
The transport rate J, is calculated as the slope of the linear regression fit for the transport amount over time data using Microsoft Excel® 97 SR-2 (Microsoft Corp. Redmond, Wash.).
Lucifer yellow (LY) was used as a paracellular permeability reference standard to determine integrity of cell layers used in the experiments. LY transport in the apical to basolateral direction was carried out in the same manner as described above. Fluorescence level in basolateral fluid sampled at 5, 20, and 60 min post dose was determined using Fluostar Galaxy (BMG Labtechnologies, Durham, N.C.) at excitation/emission wavelengths of 485/520 nm. A standard curve covering the range from 0.002 to 0.5 mg/mL is constructed to quantify the amount of LY in the transport sample to calculate permeability coefficient (Papp).

[2] = Systemic half-life after oral or intravenous administration in dogs; assay type: in vivo, dogs (beagle); conditions: for Dog T1/2 Prodrug / Dog T1/2 PPI / half-life: oral solution, unit inferred; for Dog T1/2 Prodrug: half-life of intact prodrug, NC = plasma concentration of prodrug too low to calculate half-life, or undetected; for Dog T1/2 PPI / half-life: systemic half-life of the proton pump inhibitor; for t1/2 (systemic half-life in dogs after oral administration): Table 2D; for half-life: beagle, dog, blood, po, read-out: Dog T1/2 PPI (converted)
Protocol: (§1) Blood concentrations of the compounds omeprazole, lansoprazole, pantoprazole, rabeprazole, and test compounds were quantified using an achiral liquid chromatography tandem mass spectrometry method (LC-MS/MS). Systemic pharmacokinetic parameters were determined for omeprazole or lansoprazole using non-compartmental analysis in Watson® version 6.3, available from InnaPhase Corporation, Philadelphia, Pa.

[3] = Systemic half-life after oral or intravenous administration in rats; assay type: in vivo, rats (Sprague-Dawley); conditions: rats, oral solution; for Rat T1/2 Prodrug: half-life of intact prodrug, NC = plasma concentration of prodrug too low to calculate half-life, or undetected
Protocol: as §1

[4] = systemic half-life of the proton pump inhibitor, unit inferred

| Dog T1/2 Prodrug [2] [min] | Dog T1/2 PPI [2] [min] | Rat T1/2 PPI [3, 4] [min] | Structure (SMILES) | other results |
| --- | --- | --- | --- | --- |
| 6.78 | 96.6 |  | COc1ccc2c(c1)nc([S+]([O-])Cc1ncc(C)c(OC)c1C)n2S(=O)(=O)c1c(C)cc(OCC(=O)O)cc1C (centres unmarked) [Compound 2] | Permeability [1]: 0.054 ×10⁻⁶ cm/s; t1/2 (systemic half-life in dogs after oral administration) [2]: 96 min |
| 18.7 | 48.8 | 106 | COc1ccc2c(c1)nc([S+]([O-])Cc1ncc(C)c(OC)c1C)n2S(=O)(=O)c1ccc(OCC(C)(C)C(=O)O)cc1 (centres unmarked) [Compound 3] | Permeability [1]: 0.38 ×10⁻⁶ cm/s; t1/2 (systemic half-life in dogs after oral administration) [2]: 48.6 min |
| 75.6 | 50.2 | 42.5 | COc1ccc2c(c1)nc([S+]([O-])Cc1ncc(C)c(OC)c1C)n2S(=O)(=O)c1c(C)cc(OCC(C)(C)C(=O)O)cc1C (centres unmarked) [Compound 4] | Permeability [1]: 0.52 ×10⁻⁶ cm/s; Rat T1/2 Prodrug ([3]; unit inferred): 20.5 min; t1/2 (systemic half-life in dogs after oral administration) [2]: 50.4 min |
| 16.1 | 61.8 | 102 | COc1ccc2c(c1)nc([S+]([O-])Cc1ncc(C)c(OC)c1C)n2S(=O)(=O)c1ccc(CC(=O)O)cc1 (centres unmarked) [Compound 5] | Permeability [1]: 0.17 ×10⁻⁶ cm/s; t1/2 (systemic half-life in dogs after oral administration) [2]: 60 min |
| 18.2 | 115 | 116 | COc1ccc2c(c1)nc([S+]([O-])Cc1ncc(C)c(OC)c1C)n2S(=O)(=O)c1cccc(C(=O)O)c1 (centres unmarked) [Compound 6] | Permeability [1]: 0.067 ×10⁻⁶ cm/s; t1/2 (systemic half-life in dogs after oral administration) [2]: 114 min |
| 12.4 | 53.6 | 116 | Cc1c(OCC(F)(F)F)ccnc1C[S+]([O-])c1nc2ccccc2n1S(=O)(=O)c1cccc(C(=O)O)c1 (centres unmarked) [Compound 7] | Permeability [1]: 0.16 ×10⁻⁶ cm/s; t1/2 (systemic half-life in dogs after oral administration) [2]: 53.4 min |
|  | 64.8 | 108 | COc1ccc(S(=O)(=O)n2c([S+]([O-])Cc3nccc(OCC(F)(F)F)c3C)nc3ccccc32)cc1C(=O)O (centres unmarked) [Compound 8] | Permeability [1]: 0.23 ×10⁻⁶ cm/s; t1/2 (systemic half-life in dogs after oral administration) [2]: 66 min |
|  | 53.6 | 20.5 | Cc1c(OCC(F)(F)F)ccnc1C[S+]([O-])c1nc2ccccc2n1S(=O)(=O)c1ccc(CC(=O)O)cc1 (centres unmarked) [Compound 9] | Permeability [1]: 0.34 ×10⁻⁶ cm/s; t1/2 (systemic half-life in dogs after oral administration) [2]: 53.4 min |
|  | 59.3 |  | Cc1c(OCC(F)(F)F)ccnc1C[S+]([O-])c1nc2ccccc2n1S(=O)(=O)c1ccc(OCC(=O)O)cc1 (centres unmarked) [Compound 10] |  |
|  | 52.4 | 56 | Cc1c(OCC(F)(F)F)ccnc1C[S+]([O-])c1nc2ccccc2n1S(=O)(=O)c1ccc(OCC(C)(C)C(=O)O)cc1 (centres unmarked) [Compound 11] |  |
|  | 55.9 |  | Cc1c(OCC(F)(F)F)ccnc1C[S+]([O-])c1nc2ccccc2n1S(=O)(=O)c1ccc(CC(=O)O)c(CC(=O)O)c1 (centres unmarked) [Compound 12] |  |
| 7.32 | 106 | 141 | Cc1ccc(C(=O)O)cc1S(=O)(=O)n1c([S+]([O-])Cc2nccc(OCC(F)(F)F)c2C)nc2ccccc21 (centres unmarked) [Compound 13] |  |
| 7.08 | 83.4 | 32.2 | COc1ccc(C(=O)O)cc1S(=O)(=O)n1c([S+]([O-])Cc2nccc(OCC(F)(F)F)c2C)nc2ccccc21 (centres unmarked) [Compound 14] |  |
|  | 60 | 112 | Cc1c(OCC(F)(F)F)ccnc1C[S+]([O-])c1nc2ccccc2n1S(=O)(=O)c1ccc(C(=O)O)c(OCC(=O)O)c1 (centres unmarked) [Compound 16] |  |
| 89.4 | 67.8 |  | Cc1cc(OCC(=O)O)cc(C(C)C)c1S(=O)(=O)n1c([S+]([O-])Cc2nccc(OCC(F)(F)F)c2C)nc2ccccc21 (centres unmarked) [Compound 17] |  |
| 5.39 | 54.5 |  | Cc1c(OCC(F)(F)F)ccnc1C[S+]([O-])c1nc2ccccc2n1S(=O)(=O)c1ccc(C(=O)O)cc1 (centres unmarked) [Compound 18] |  |
| 110 | 29 |  | Cc1ccc(S(=O)(=O)n2c([S+]([O-])Cc3nccc(OCC(F)(F)F)c3C)nc3ccccc32)cc1CCC(=O)O (centres unmarked) [Compound 19] |  |

| Dog T1/2 Prodrug [2] [min] | Dog T1/2 PPI [2] [min] | Rat T1/2 PPI [3, 4] [min] | Structure (SMILES) | other results |
| --- | --- | --- | --- | --- |
|  | 233 |  | COc1ccc2c(c1)nc([S+]([O-])Cc1ncc(C)c(OC)c1C)n2S(=O)(=O)c1ccc(C(=O)O)c(C(=O)O)c1 (centres unmarked) [Compound 22] |  |
|  | 73.2 | 163 | COc1ccc2c(c1)nc([S+]([O-])Cc1ncc(C)c(OC)c1C)n2S(=O)(=O)c1ccc(OCC(=O)O)c(C(=O)O)c1 (centres unmarked) [Compound 23] |  |
|  | 82.2 | 23 | COc1ccc2c(c1)nc([S+]([O-])Cc1ncc(C)c(OC)c1C)n2S(=O)(=O)c1ccc(OCC(=O)O)c(OCC(=O)O)c1 (centres unmarked) [Compound 24] |  |
| 7.02 | 66 | 130 | COc1ccc2c(c1)nc([S+]([O-])Cc1ncc(C)c(OC)c1C)n2S(=O)(=O)c1cc(C(=O)O)ccc1C (centres unmarked) [Compound 27] |  |
|  | 157 | 87 | COc1ccnc(C[S+]([O-])c2nc3cc(OC(F)F)ccc3n2S(=O)(=O)c2ccc(OCC(=O)O)cc2)c1OC (centres unmarked) [Compound 28] |  |
|  | 57.5 | 60.6 | COc1ccnc(C[S+]([O-])c2nc3cc(OC(F)F)ccc3n2S(=O)(=O)c2cc(C(=O)O)ccc2C)c1OC (centres unmarked) [Compound 29] |  |
| 67.2 | 29.5 |  | COCCCOc1ccnc(C[S+]([O-])c2nc3ccccc3n2S(=O)(=O)c2cccc(C(=O)O)c2)c1C (centres unmarked) [Compound 30] |  |
| 50.6 | 51.3 |  | COCCCOc1ccnc(C[S+]([O-])c2nc3ccccc3n2S(=O)(=O)c2cc(C(=O)O)ccc2C)c1C (centres unmarked) [Compound 31] |  |
| 31.6 | 91.2 |  | COCCCOc1ccnc(C[S+]([O-])c2nc3ccccc3n2S(=O)(=O)c2c(C)cc(OCC(=O)O)cc2C)c1C (centres unmarked) [Compound 32] |  |
| 44.8 | 53.6 |  | COCCCOc1ccnc(C[S+]([O-])c2nc3ccccc3n2S(=O)(=O)c2ccc(C(=O)O)cc2)c1C (centres unmarked) [Compound 33] |  |
|  |  | 66.6 | Cc1cc(OCC(=O)O)cc(C)c1S(=O)(=O)n1c([S+]([O-])Cc2nccc(OCC(F)(F)F)c2C)nc2ccccc21 (centres unmarked) [Compound 34] |  |
|  |  | 110 | Cc1c(OCC(F)(F)F)ccnc1C[S+]([O-])c1nc2ccccc2n1S(=O)(=O)c1ccc(OCC(=O)O)c(OCC(=O)O)c1 (centres unmarked) [Compound 35] |  |
|  |  | 23.3 | Cc1c(OCC(F)(F)F)ccnc1C[S+]([O-])c1nc2ccccc2n1S(=O)(=O)c1ccc(C(=O)O)cc1 (centres unmarked) [Compound 36] |  |
|  |  | 131 | Cc1cc(C(=O)O)ccc1S(=O)(=O)n1c([S+]([O-])Cc2nccc(OCC(F)(F)F)c2C)nc2ccccc21 (centres unmarked) [Compound 37] |  |
|  |  | 85.8 | COc1ccc(S(=O)(=O)n2c([S+]([O-])Cc3nccc(OCC(F)(F)F)c3C)nc3ccccc32)cc1CCC(=O)O (centres unmarked) [Compound 38] | Rat T1/2 Prodrug ([3]; unit not given): 1.04 (0.35) |
|  |  |  | COc1ccnc(C[S+]([O-])c2nc3ccc(OC(F)F)cc3[nH]2)c1OC (centres unmarked) [Pantoprazole, reference compound] | half-life ([3]; Sprague-Dawley, rat, blood, systemic half-life of the proton pump inhibitor, unit inferred, read-out: Rat T1/2 PPI (converted)): 41.8 min; half-life [2]: 44.6 min |
|  |  |  | COCCCOc1ccnc(C[S+]([O-])c2nc3ccccc3[nH]2)c1C (centres unmarked) [Rabeprazole, reference compound] | half-life [2]: 22.1 min |

| Structure (SMILES) | Dog T1/2 Prodrug [2] [min] | Dog T1/2 PPI [2] [min] | Rat T1/2 PPI [3, 4] [min] | other results |
| --- | --- | --- | --- | --- |
| COC(=O)COc1ccc(S(=O)(=O)n2c([S+]([O-])Cc3ncc(C)c(OC)c3C)nc3cc(OC)ccc32)cc1 (centres unmarked) [Compound 20] |  | 162 |  |  |
